One data set concerns Daphnia pulex. The data set is described as follows: Incubation of Daphnia pulex with samples in FLAMES medium, evaluation of potential toxicity. Format: in vivo. The source says:
The impressive robustness and fading-free properties of the Dyes@BNNT are appealing for bio-imaging applications. FIG. 4 presents an example of the use of nanohybrids to make optical nanoprobes for imaging living Daphnia pulex microorganisms in water—see bright-field image in FIG. 4a #1. Daphnia (also called water fleas) are common planktonic crustaceans, which find use as chemical sensors in ecotoxicology studies, thanks to their high sensitivity to water quality. To acquire the bio-images (FIG. 4a #2-5), we first solubilized the Dyes@BNNTs in a water-based living medium called FLAMES, using a poly (ethylene) glycol derivative (mPEG-DSPE) (Supplementary Section 2.9). […] Living daphniids were imaged under a fluorescence microscope equipped with UBG filter and a 10× objective. […] This natural blue-green signal originates from the auto-fluorescence of the tissues in FLAMES through the UBG filter, which disappears after death or after few minutes only of photobleaching. […]
Before any experiment, many adult individuals of Daphnia pulex (clones DISP 1312) were kept at 22° C. in FLAMES with algae for 4 days, allowing a new reproducing cycle. Then, the specimens were transferred to a FLAMES medium algae-free and maintained this condition for at least 1 day to clean the digestive system and limit the fluorescence from the algae themselves during the images/time lapse acquisition—FIG. 8. […]

A short description of data set [1]: Chemical stability on Si/SiO2: oxygen plasma, thermal annealing, piranha. The format is physicochemical. The conditions noted are these: oxygen plasma of 100 W for 10 minutes. The procedure:
The chemical stability of the nanohybrids is tested using individualized 6T@BNNT bundles on Si/SiO2 exposed to an oxygen plasma of 100 W for 10 minutes. […] The enhanced stability of the encapsulated dyes has also been observed upon thermal annealing up to 350° C. in air and using piranha solutions (not shown). […] The chemical and physical stability experiments have been repeated on a number of Dyes@BNNT nanohybrids of different lengths deposited on substrates or dispersed in a solution (See e.g. Supplementary Figs. 10 and 11). All of the results lead us to the same conclusion, which underlines the tremendous gain in stability inferred by the confinement of the 1D cavity of BNNTs.

In the next data set the test system is HuH6 cells. The data set is described as follows: Two-photon photobleaching test and excitation profile in fixed HuH6 cells. The arrangement: species or system human. To be noted: λex=860 nm, 30 mins, 400 Hz, laser output power 2.55 W. As to the method: To further assess a possible toxicity of the Dyes@BNNT, we performed an additional set of experiments at the scale of a cell. We incubated 10 μg·mL^−1 of a PEG-6T@BNNT solution for 24 hours with human hepatoblastoma HuH6 cells, which is one of the model cell lines used for toxicology studies. […] FIGS. 5a and 5c show fluorescence spectra consistent with DiA (green) and PEG-6T@BNNT (red) separated in the regions 2 and 1, respectively. […] The fluorescence of both the DiA and PEG-6T@BNNT, as a function of the excitation wavelength between 740 nm and 1020 nm, is shown in FIG. 5d. The resonance maximum of DiA is measured at 880 nm, which is distinct from the resonance of the PEG-6T@BNNT located at ˜740 nm, a position similar to that of functionalized polythiophene. […] To directly compare exposed and non-exposed cells, FIG. 5b presents a two-photon hyperspectral fluorescence image taken in a field of view slightly larger than the photobleaching test area. […]
3.2 Characterization by Raman and Photoluminescence. […] The equipment of the different setups is summarized in Table S2 and are described as follows: • The Luminescence images and photobleaching experiments, as presented in FIG. 3, main text, were performed at λex=532 nm using the Raman/PL mapping system RIMA™ (Photon etc.). […]

This is an account of results in patent US11982676B2, “Near-infrared fluorescent nanoprobe” (VALORISATION-RECHERCHE, LIMITED PARTNERSHIP, priority 2021, dated 2024).

Regarding `c1csc(-c2ccc(-c3ccc(-c4ccc(-c5ccc(-c6cccs6)s5)s4)s3)s2)c1` [6T, α-sexithiophene], the “state of daphniids after first incubation test” value with Daphnia pulex (free 6T in FLAMES, incubation time of only few minutes) is “found dead”. Also, the “time after which individuals died” value with Daphnia pulex (group B, incubated directly with 6T at 100 ug/mL) amounted to 20 h. Moreover, the “change in PL after oxygen plasma” value in data set [1] is reported as “completely vanished”.

Regarding `CCCCC/C=C\C/C=C\CCCCCCCCN(CCCCCCCC/C=C\C/C=C\CCCCC)c1ccc(C=Cc2cc[n+](C)cc2)cc1.O=S(=O)([O-])c1ccc(Cl)cc1` [DiA], the “fluorescence after two-photon photobleaching test” value with HuH6 cells is reported as “significantly photo-bleached”.
